The target of one data set is mu-opioid receptor (MOR). The settings on record: N-substituted 5-phenylmorphans; read-out: affinity at MOR Ki; cited from earlier work.
Data set [1] concerns cloned human mu-opioid receptor. The settings on record: [35S]GTPγS functional assay; cited from earlier work. (GTPγS resists hydrolysis and so accumulates on activated G proteins.)
The target of a further data set is T1, μ-opioid receptor (MOR) (Rattus norvegicus, UniProt P33535).
T1 construct: All assay tubes contained 100 μL homogenate suspension; from tissue; host or cells: whole rat brain excluding cerebellum, membrane homogenate
T1 sequence (P33535 whole entry): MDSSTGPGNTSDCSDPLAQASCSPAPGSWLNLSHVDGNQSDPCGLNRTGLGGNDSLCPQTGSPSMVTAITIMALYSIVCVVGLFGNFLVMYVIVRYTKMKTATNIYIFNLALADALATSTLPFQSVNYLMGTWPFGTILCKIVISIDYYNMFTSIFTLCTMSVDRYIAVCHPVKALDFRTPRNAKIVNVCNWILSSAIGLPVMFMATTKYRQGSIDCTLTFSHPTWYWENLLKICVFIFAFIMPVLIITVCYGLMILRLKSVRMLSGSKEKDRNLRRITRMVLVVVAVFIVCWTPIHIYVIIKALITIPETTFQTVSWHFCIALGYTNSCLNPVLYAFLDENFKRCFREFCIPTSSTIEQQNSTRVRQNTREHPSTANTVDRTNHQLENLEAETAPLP
Kind of data set: Opioid receptor binding, MOR ([3H]DAMGO), rat brain homogenate. Particulars: [3H]DAMGO, whole rat brains excluding cerebellum; read-out: MOR Binding (Ki ± SEM).

The next data set has as its target T2, δ-opioid receptor (DOR) (Rattus norvegicus, UniProt P33533).
T2 construct: All assay tubes contained 100 μL homogenate suspension; from tissue; host or cells: whole rat brain excluding cerebellum, membrane homogenate
The data set can be described thus: Opioid receptor binding, DOR ([3H]DADLE), rat brain homogenate. Particulars: for Ki: [3H]DADLE, whole rat brains excluding cerebellum, read-out: DOR Binding (Ki ± SEM); for fold lower affinity at DOR than at MOR: from Ki of Table 1.

Another data set has as its target T3, κ-opioid receptor (KOR) (Rattus norvegicus, UniProt P34975).
T3 construct: All assay tubes contained 100 μL homogenate suspension; from tissue; host or cells: whole rat brain excluding cerebellum, membrane homogenate
The data set can be described thus: Opioid receptor binding, KOR ([3H]U69,593), rat brain homogenate. The settings on record: for Ki: [3H]U69,593, whole rat brains excluding cerebellum, read-out: KOR Binding (Ki ± SEM); for fold lower affinity at KOR than at MOR: from Ki of Table 1.

Another data set has as its target T4, CYP2D6 (Homo sapiens, UniProt P10635).
T4 construct: selected human liver microsomal cytochrome P450 isozymes (CYP1A2, CYP2C9, CYP2C19, CYP2D6, and CYP3A); from tissue; host or cells: human liver microsomes
The data set can be described thus: P450 inhibition, human liver microsomal CYP2D6. Type of data set: in vitro ADME. Background: Liver microsomes are a subcellular fraction often used to study metabolism.

The next data set has as its system CYP3A. The data set can be described thus: P450 inhibition, human liver microsomal CYP3A. The format is in vitro ADME. Particulars: human liver microsomes, read-out: 3A %Inhibition.
In data set [2] the target is T5, human δ-opioid receptor (OPRD1) (Homo sapiens, UniProt P41143). Particulars: versus EC50 of SNC80; normalized to naltrexone.
T5 sequence (P41143 whole entry): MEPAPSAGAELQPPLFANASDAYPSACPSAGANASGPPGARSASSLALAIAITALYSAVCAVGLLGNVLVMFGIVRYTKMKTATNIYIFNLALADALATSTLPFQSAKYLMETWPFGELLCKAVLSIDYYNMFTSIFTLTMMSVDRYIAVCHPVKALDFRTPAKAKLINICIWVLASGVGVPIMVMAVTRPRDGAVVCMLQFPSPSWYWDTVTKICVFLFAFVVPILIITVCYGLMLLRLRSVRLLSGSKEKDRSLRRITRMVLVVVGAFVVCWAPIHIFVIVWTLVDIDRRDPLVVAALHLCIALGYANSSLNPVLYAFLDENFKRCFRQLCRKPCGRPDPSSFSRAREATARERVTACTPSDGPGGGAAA
For another data set, the target named is CYP2C19 (Homo sapiens, UniProt P33261). The data set can be described thus: in vitro. Particulars: microsomes.
CYP2C19, sequence (P33261 whole entry): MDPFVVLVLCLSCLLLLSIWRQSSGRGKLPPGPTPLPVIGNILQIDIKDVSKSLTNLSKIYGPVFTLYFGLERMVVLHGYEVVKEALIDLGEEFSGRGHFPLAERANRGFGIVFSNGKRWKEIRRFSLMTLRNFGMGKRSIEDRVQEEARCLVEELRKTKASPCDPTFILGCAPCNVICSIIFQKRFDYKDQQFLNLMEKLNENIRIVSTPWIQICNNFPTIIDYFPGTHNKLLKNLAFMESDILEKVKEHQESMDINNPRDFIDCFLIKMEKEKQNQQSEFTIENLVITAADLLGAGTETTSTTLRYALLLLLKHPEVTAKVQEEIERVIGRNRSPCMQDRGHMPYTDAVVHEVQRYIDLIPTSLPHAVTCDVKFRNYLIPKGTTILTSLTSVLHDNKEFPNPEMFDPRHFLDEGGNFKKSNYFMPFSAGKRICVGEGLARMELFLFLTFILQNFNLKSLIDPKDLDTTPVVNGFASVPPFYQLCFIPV
Data set [3] in a line: in vitro. The settings on record: human, microsomes.
Data set [4] is described as follows: in vitro. The settings on record: mouse, microsomes.
Data set [5] concerns the target T5, human δ-opioid receptor (OPRD1). Kind of data set: cell-based.
For a further data set, the target named is T6, CYP1A2 (Homo sapiens, UniProt P05177).
T6 sequence (P05177 1-516): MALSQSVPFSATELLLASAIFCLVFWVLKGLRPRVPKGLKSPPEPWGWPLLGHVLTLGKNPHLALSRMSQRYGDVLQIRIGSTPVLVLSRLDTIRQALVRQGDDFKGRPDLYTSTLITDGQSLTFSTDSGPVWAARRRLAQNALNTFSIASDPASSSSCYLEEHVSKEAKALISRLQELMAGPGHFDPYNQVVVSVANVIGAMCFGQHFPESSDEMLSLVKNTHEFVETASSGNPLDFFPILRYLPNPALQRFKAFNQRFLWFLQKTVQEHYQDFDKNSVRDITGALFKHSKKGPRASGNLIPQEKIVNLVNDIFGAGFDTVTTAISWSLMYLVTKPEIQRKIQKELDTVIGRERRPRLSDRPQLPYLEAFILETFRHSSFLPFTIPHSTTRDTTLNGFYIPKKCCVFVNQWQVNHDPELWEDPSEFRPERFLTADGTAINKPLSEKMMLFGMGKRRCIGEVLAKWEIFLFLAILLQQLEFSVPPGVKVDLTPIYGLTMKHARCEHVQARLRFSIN
The data set can be described thus: P450 inhibition, human liver microsomal CYP1A2. The settings on record: microsomes.

Another data set addresses CYP2C9 (Homo sapiens, UniProt P11712). The data set can be described thus: P450 inhibition, human liver microsomal CYP2C9. Particulars: microsomes.
The nature of data set [6]: Microsomal metabolic stability, human liver microsomes.
Data set [7] in a line: Microsomal metabolic stability, mouse liver microsomes. Particulars: for Remaining (NCF = 60 min): MLM 0.5, no co-factor (no NADPH); for Remaining (T = 60 min): MLM 0.5, with NADPH.
The target of data set [8] is T5, human δ-opioid receptor (OPRD1). Kind of data set: Forskolin-induced cAMP accumulation assay, DOR agonist mode.
Data set [9] addresses T7, human κ-opioid receptor (OPRK1) (Homo sapiens, UniProt P41145). The data set can be described thus: Forskolin-induced cAMP accumulation assay, KOR agonist mode. In general terms: cAMP levels reflect the balance of adenylyl cyclase and phosphodiesterase activity.
Data set [10] concerns the target T7, human κ-opioid receptor (OPRK1). Kind of data set: Forskolin-induced cAMP accumulation assay, KOR antagonist mode. The settings on record: for KOR Antagonist %Imax ± SEM: versus EC90 of U50488H, normalized to nor-BNI.
Where [11] appears, read: forskolin-induced cAMP accumulation assay.

CYP2C9, sequence (P11712 whole entry): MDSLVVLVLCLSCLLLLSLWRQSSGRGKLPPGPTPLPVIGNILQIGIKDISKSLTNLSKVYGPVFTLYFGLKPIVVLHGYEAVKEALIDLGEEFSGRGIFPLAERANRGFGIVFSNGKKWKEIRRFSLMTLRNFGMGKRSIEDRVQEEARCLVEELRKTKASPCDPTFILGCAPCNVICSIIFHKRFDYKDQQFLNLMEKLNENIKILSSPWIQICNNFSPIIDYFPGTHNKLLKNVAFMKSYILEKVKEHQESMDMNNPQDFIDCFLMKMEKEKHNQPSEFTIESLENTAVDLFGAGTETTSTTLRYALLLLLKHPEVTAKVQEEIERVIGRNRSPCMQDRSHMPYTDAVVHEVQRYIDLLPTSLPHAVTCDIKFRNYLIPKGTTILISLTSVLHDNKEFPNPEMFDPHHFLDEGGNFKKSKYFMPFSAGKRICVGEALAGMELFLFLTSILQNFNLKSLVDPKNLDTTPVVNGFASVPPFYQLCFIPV
T3 sequence (P34975 whole entry): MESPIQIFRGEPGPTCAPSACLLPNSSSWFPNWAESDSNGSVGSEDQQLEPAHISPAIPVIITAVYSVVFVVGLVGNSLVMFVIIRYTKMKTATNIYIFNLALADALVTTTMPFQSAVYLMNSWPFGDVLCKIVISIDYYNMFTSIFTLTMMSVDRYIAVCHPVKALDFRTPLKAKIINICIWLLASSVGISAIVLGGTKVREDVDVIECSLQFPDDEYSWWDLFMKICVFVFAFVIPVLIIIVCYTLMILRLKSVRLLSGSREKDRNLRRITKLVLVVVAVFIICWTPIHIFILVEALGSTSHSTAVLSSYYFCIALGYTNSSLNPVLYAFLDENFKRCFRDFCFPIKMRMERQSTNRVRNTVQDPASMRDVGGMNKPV
T2 sequence (P33533 whole entry): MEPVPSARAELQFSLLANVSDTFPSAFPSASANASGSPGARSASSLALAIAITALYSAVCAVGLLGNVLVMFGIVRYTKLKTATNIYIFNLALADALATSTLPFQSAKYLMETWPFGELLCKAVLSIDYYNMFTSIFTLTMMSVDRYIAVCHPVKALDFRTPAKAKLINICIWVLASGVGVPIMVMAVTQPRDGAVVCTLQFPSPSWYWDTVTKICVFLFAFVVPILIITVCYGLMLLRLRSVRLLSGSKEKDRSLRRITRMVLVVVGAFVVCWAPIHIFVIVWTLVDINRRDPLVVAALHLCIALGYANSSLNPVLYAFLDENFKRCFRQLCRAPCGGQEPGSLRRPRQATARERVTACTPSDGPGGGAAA
T7 sequence (P41145 whole entry): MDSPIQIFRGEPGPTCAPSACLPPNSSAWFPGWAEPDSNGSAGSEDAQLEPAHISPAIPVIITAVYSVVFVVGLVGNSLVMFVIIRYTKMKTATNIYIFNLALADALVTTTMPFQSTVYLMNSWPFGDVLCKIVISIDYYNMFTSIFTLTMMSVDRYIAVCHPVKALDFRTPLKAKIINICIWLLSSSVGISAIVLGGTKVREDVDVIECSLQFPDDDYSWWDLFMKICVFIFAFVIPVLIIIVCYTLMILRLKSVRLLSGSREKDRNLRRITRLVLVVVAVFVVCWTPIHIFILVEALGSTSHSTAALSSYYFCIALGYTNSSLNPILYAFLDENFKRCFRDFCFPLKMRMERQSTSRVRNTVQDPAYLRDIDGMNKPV
T4 sequence (P10635 whole entry): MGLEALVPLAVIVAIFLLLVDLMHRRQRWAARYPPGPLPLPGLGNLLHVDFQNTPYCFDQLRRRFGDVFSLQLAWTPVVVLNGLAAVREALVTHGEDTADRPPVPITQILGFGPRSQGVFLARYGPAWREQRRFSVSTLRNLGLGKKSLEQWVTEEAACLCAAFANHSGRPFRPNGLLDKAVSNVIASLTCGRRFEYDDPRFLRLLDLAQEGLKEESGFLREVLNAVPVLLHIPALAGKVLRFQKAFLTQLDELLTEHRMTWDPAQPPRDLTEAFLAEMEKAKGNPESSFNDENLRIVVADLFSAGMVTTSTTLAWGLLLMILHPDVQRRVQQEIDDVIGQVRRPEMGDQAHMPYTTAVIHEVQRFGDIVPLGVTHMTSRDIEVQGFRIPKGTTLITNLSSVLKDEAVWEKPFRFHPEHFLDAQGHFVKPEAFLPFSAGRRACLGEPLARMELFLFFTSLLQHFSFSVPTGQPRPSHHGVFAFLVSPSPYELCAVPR

One may read the Ki as a measure of affinity in units of concentration, obtained from inhibition or displacement. Turning to `Oc1cccc(C23CCCC(C2)N(CC2CC2c2ccccc2)CC3)c1` (single isomer, unassigned; (+)) [(+)-2], on mu-opioid receptor (MOR), the Ki is 0.003 µM. In addition, the “mu-opioid antagonist activity Ke” value in data set [1] is 0.17 nM.

`Oc1cccc(C23CCCC(C2)N(CC2CC2c2ccccc2)CC3)c1` (single isomer, unassigned; (-)) [(-)-3]: at mu-opioid receptor (MOR), the inhibition constant Ki was 0.004 µM. Also, the “mu-opioid antagonist activity Ke” value in data set [1] is recorded as 0.3 nM.

A word on the inhibition: it is the relative decrease from the control value, in per cent. As a reminder, the CLint scaled is the capacity of the preparation to metabolise the compound, expressed as a volume cleared per time. One may read the half-life as the time needed for the level to fall by half in the phase considered. Usually microsomal CLint stands for the rate of metabolic loss divided by the concentration. A low value points to slow turnover. As a reminder, the IC50 is the concentration that gives 50% inhibition. In general, EC50 refers to the concentration at which the effect is half-maximal. Read a high EC50 as lower potency in that assay. Take `Oc1cccc2c1O[C@H]1CN(C[C@H]3C[C@@H]3c3ccccc3)[C@H]3CCC[C@@]21C3` [(+)-17, (3S,6aR,11aR)-2-(((1S,2S)-2-Phenylcyclopropyl)methyl)-1,3,4,5,6,11a-hexahydro-2H-3,6a-methanobenzofuro[2,3-c]azocin-10-ol]: the Ki was found to be 0.0119 ± 0.0016 µM on μ-opioid receptor (MOR), 0.0494 ± 0.0051 µM at δ-opioid receptor (DOR) and 0.1 ± 0.01 µM on κ-opioid receptor (KOR). In addition, the “fold lower affinity at DOR than at MOR” value on δ-opioid receptor (DOR) was “approximately 4 fold”. Besides, on κ-opioid receptor (KOR), the “fold lower affinity at KOR than at MOR” value is reported as “about 10 fold”. Moreover, the “2D6 %Inhibition” value at CYP2D6 (10 µM) is on record as 66.8%. Besides, the inhibition at 10 µM is above 50% at CYP2D6 (human, human liver microsomes, read-out: 2D6 %Inhibition); 24.7% with CYP3A; 46.6% at CYP2C19; 6.8% against CYP1A2; 36.6% against CYP2C9. Moreover, the “DOR Antagonist %Imax ± SEM” value in data set [2] is 160.9 ± 4.0%. Moreover, the figures for the CLint scaled in “in vitro [3]” and in the data set “in vitro [4]” were 62 mL/min/kg and 801 mL/min/kg, respectively. For the same compound, the half-life in the data set “in vitro [3]” came out at 20.1 min; in “in vitro [4]” it was 6.9 min. For the same compound, the microsomal CLint is 68.9 µL/min/mg in “in vitro [3]” and 202 µL/min/mg in “in vitro [4]”. For the same compound, the results for the IC50 in data set [5] and in data set [10] were 0.487 ± 0.157 µM and 0.206 ± 0.0632 µM, respectively. The “Remaining (NCF = 60 min)” value in data set [6] (HLM 0.5, no co-factor (no NADPH)) was found to be 98.5%; in [7], 94.4%. Besides, the “Remaining (T = 60 min)” value stood at 13.0% in data set [6] (HLM 0.5, with NADPH) and 0.2% in data set [7]. The EC50 in data set [8] and in data set [9] was above 10 µM each time. The “functional agonist activity at DOR” value in [8] (setting [11]) was “did not have functional agonist activity”. Moreover, in data set [9] (setting [11]), the “functional agonist activity at KOR” value is recorded as “did not have functional agonist activity”. The “KOR Antagonist %Imax ± SEM” value in data set [10] stood at 106.1 ± 5.5%.

With `Oc1cccc2c1O[C@H]1CN(CCc3ccccc3)[C@H]3CCC[C@@]21C3` [(-)-1, (3S,6aR,11aR)-2-Phenethyl-1,3,4,5,6,11a-hexahydro-2H-3,6a-methano-benzofuro[2,3-c]azocin-10-ol], the Ki on μ-opioid receptor (MOR) was 0.00111 ± 0.00015 µM; at δ-opioid receptor (DOR) it was 0.0348 ± 0.0044 µM; on κ-opioid receptor (KOR), 0.013 ± 0.0012 µM. The “fold lower affinity at DOR than at MOR” value at δ-opioid receptor (DOR) was “approximately 30 fold”. Further, the “fold lower affinity at KOR than at MOR” value on κ-opioid receptor (KOR) is given as “about 10 fold”. Also, the “DOR Antagonist %Imax ± SEM” value in data set [2] turned out to be 86.5 ± 6.4%. Further, the IC50 in data set [5] turned out to be 0.409 ± 0.138 µM; in data set [10] it was 0.102 ± 0.0658 µM. The EC50 in [8] and in [9] was above 10 µM in each case. For the same compound, in data set [10], the “KOR Antagonist %Imax ± SEM” value is recorded as 109.3 ± 8.1%.

Regarding `CC(=O)N1CCN(c2ccc(OCC3COC(Cn4ccnc4)(c4ccc(Cl)cc4Cl)O3)cc2)CC1` (centres unmarked) [Ketoconazole, reference compound], the inhibition at 10 µM with CYP3A turned out to be 98.8%.

As for `O=C1CC[C@@]2(O)[C@H]3Cc4ccc(O)c5c4[C@@]2(CCN3CC2CC2)[C@H]1O5` [Naltrexone], the inhibition at 10 µM at CYP2C19 and at CYP2C9 was 0% throughout. The “Remaining (NCF = 60 min)” value in data set [6] (human, microsomes, 1 h) came to 99.8%; in data set [7], 84.3%. Besides, the “Remaining (T = 60 min)” value was determined as 97.1% in data set [6] (human, microsomes, 1 h) and 48.1% in data set [7].

Compound `Nc1ccc(S(=O)(=O)Nc2ccnn2-c2ccccc2)cc1` [Sulfaphenazole] showed an inhibition at 10 µM against CYP2C9 of 85.2%.

At CYP1A2, `O=c1cc(-c2ccccc2)oc2c1ccc1ccccc12` [α-Naphthoflavone, reference compound] gave an inhibition at 10 µM of 88.3%.

These data come from publication PMC9785231, “Synthesis and Pharmacological Evaluation of Enantiopure N-Substituted Ortho-c Oxide-Bridged 5-Phenylmorphans” (Molecules, 2022).
